# Results as given in patent US20210395295A1, “INHIBITORS OF GLUCOCORTICOID RECEPTOR” (ORIC Pharmaceuticals, Inc., priority 2015, published 2021).
# Experiments:
# GR = target: T1, GR (Homo sapiens, UniProt P04150); experiment: In vitro GR luciferase reporter assay (antagonist mode); assay type: cell-based; details: CHO-K1-GR-MMTV-Luc reporter cells, 10 nM dexamethasone, 18-24 hours
# T1 construct: expressed in transfected cells; host or cells: CHO-K1 (Chinese hamster ovary) reporter cells carrying GR and MMTV-Luc
# T1 sequence (P04150 1-777): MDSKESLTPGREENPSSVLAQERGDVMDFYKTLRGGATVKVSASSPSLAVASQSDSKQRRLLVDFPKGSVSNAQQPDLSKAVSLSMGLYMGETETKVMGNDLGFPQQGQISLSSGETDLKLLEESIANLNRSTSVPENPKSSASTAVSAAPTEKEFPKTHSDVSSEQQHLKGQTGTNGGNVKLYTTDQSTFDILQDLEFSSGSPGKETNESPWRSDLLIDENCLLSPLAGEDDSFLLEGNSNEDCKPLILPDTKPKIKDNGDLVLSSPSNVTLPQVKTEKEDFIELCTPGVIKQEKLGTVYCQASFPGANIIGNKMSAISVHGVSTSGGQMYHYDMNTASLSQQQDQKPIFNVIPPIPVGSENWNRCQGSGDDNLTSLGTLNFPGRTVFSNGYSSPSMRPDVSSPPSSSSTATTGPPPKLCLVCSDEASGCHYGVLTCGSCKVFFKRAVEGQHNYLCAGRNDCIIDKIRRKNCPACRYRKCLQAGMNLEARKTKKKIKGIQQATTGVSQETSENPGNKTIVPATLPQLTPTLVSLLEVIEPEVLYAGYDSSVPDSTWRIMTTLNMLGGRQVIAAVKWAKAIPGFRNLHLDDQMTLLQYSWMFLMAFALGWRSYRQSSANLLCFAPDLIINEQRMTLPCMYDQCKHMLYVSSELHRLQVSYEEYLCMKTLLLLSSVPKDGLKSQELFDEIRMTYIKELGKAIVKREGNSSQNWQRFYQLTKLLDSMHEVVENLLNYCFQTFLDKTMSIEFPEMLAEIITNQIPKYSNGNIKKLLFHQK
# Source text: Example 4: In Vitro GR Luciferase Reporter Assay
# • Cell Line: CIH-K1-GR-MMTV-Luc reporter cells • Culture Media: DMEM (with phenol red) +10% FBS • Assay Media: DMEM (without phenol red) +10% CSS
# Culture CHO-K1-GR-MMTV-Luc reporter cells in 15 cm plates in Culture Media at conditions less than 90% confluence.
# Prepare 200× DMSO 1:5 serial dilutions of control and test compounds in 96-well non-sterile V bottom plate in DMSO, 8 serial dilutions for each compound.
# Prepare 5× Assay Media diluted compound serial dilutions in 96-well non-sterile V bottom plate: Add 97.5 uL/well of Assay Media into 96-well then add 2.5 ul of 200× concentration of compounds and mix well.
# Seed cells for Antagonist Assay: 1.5×10^6 CHO-K1-GR-MMTV-Luc reporter cells were seeded in a Corning 3707 flat clear bottom 384-well white TC plate in 20 ul of Assay Media containing 12.5 nM Dexamethasone (final concentration=10nM). […]
# Read plates: Equilibrate appropriate amount of Promega OneGlo luciferase reagent to room temperature. Remove the plates from incubator and add 25 uL of OneGlo reagent/well by multiple channel pipette and read the plates with Tecan F500 luminometer within 3 minutes.
# The ability of the compounds disclosed herein to inhibit GR activity was quantified and the respective IC50 value was determined. […]
# AR = experiment: In vitro AR agonism assay in LNAR reporter cell line; assay type: cell-based; details: for Relative Maximum Response to Mifepristone: LNAR cells (overexpressed AR, 4xARE-Luc), RPMI + 10% CSS, Mifepristone maximum response set to 1
# Experimental: Example 5: In Vitro AR Agonisin Assay
# The AR agonism assay was done in the LNAR reporter cell line which has overexpressed AR and 4×ARE-Luc genes. This cell line is sensitive to even minor partial AR agonism activity in hormone-deprived media (CSS). The assays were done in RPMI (without phenol red) +10% CSS using 6000 LNAR cells/well in 384-well plates and compounds were incubated with cells in […] incubator for 8-24 hrs. OneGlo reagent (25 uL/well) was added and plates were read with luminometer within 3 minutes.
# To gauge the AR partial agonism activity, Mifepristone is included as a standard in the assay. AR agonism assay results are quantified by determining the ratio of the maximum response of individual compounds to the maximum response of Mifepristone (arbitrarily set to 1). Values of Table 4 are reported as Relative Maximum Response to Mifepristone. This general trend of AR agonism was shown for the class of compounds described herein.
compound,measurement,setting,value
Cc1ccc([C@H]2C[C@@]3(C)[C@@H](CC[C@@]3(O)C#CC(C)(F)F)[C@@H]3CCC4=CC(=O)CCC4=C32)cc1F,IC50,GR,> 100 nM
[2H]C([2H])([2H])C#C[C@]1(O)[C@H](C)C[C@H]2[C@@H]3CCC4=CC(=O)CCC4=C3[C@@H](c3cc(F)c(C)c(F)c3)C[C@@]21C,IC50,GR,≤ 100 nM
CC(C)C#C[C@]1(O)CC[C@H]2[C@@H]3CCC4=CC(=O)CCC4=C3[C@@H](c3ccc(N(C)C)c(F)c3)C[C@@]21C,Relative Maximum Response to Mifepristone,AR,A (A: ≤0.4)
CN(C)c1ccc([C@H]2C[C@@]3(C)[C@@H](CC[C@@]3(O)C#CC(C)(C)C)[C@@H]3CCC4=CC(=O)CCC4=C32)cc1,Relative Maximum Response to Mifepristone,AR,A (A: ≤0.4)
"CC#C[C@]1(O)CC[C@H]2[C@@H]3CCC4=CC(=O)CCC4=C3[C@@H](c3ccc(N(C)C)cc3)C[C@@]21C [Mifepristone, reference compound]",concentration showing strong partial AR agonism,"AR; LNAR reporter cells, hormone-deprived media (CSS)",≥ 10 nM
